Assay results: ChEMBL document CHEMBL3297728, “Synthesis and antituberculosis activity of novel 5-styryl-4-(hetero)aryl-pyrimidines via combination of the Pd-catalyzed Suzuki cross-coupling and S(N)(H) reactions” (Bioorg Med Chem Lett, 2014)
Values after ≈ are worked out from the molar mass of the structure shown.

System: Mycobacterium tuberculosis
Assay: Antimycobacterial activity against rifampin- and Isoniazid- resistant Mycobacterium tuberculosis Beijing harboring Ser 531-Leu 315 rpoB mutant and Ser-Thr katG mutant after 10 days by microbroth dilution method
Assay type: functional

In order of falling MIC:
1. Brc1cncnc1-c1ccco1  1.5 µg/mL (≈ 6.67 µM)
2. C(=C\c1cncnc1-c1ccc(-c2cccs2)s1)/c1ccc(-c2ccccc2)cc1  1.5 µg/mL (≈ 3.55 µM)
3. Brc1cncnc1-c1cccs1  0.7 µg/mL (≈ 2.9 µM)
